Experiment: ESI positive response factor (isotope-corrected peak area per molar concentration) in SFC/ESI/HRMS (area units per M); higher = higher ionization efficiency
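Also: standards in acetonitrile/water run in triplicate on a zwitterionic HILIC column, CO2–methanol gradient containing 20 mmol/L ammonium acetate, postcolumn makeup flow, Orbitrap full-scan detection.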

SMILES | ESI positive response factor (0.0175 µM) | ESI positive response factor (0.035 µM) | ESI positive response factor (0.0875 µM) | ESI positive response factor (0.175 µM) | ESI positive response factor (0.35 µM) | further results
CC(C)NCC(O)COc1ccc(CC(N)=O)cc1 (centres undefined) [Atenolol] | 1.75e+17 | 1.81e+17 | 1.82e+17 | 1.75e+17 | 1.8e+17 | 
Nc1nc(N)nc(N)n1 [Melamine] |  |  |  |  |  | ESI positive response factor (0.0244 µM): 1.84e+16; ESI positive response factor (0.061 µM): 2.07e+16; ESI positive response factor (0.122 µM): 1.7e+16; ESI positive response factor (0.244 µM): 1.82e+16
O=P(OC(CCl)CCl)(OC(CCl)CCl)OC(CCl)CCl [TDCPP] | 4.09e+17 | 4.02e+17 | 3.57e+17 |  |  | 
O=C(O)[C@@H]1C[C@@H](O)CN1 [L-Hydroxyprolin] |  |  |  |  |  | ESI positive response factor (0.122 µM): 2.76e+15; ESI positive response factor (0.244 µM): 3.07e+15; ESI positive response factor (0.61 µM): 2.85e+15
CON(C)C(=O)Nc1ccc(Br)cc1 [Metobromuron] |  |  |  |  |  | ESI positive response factor (0.0122 µM): 2.18e+17; ESI positive response factor (0.0244 µM): 2.29e+17; ESI positive response factor (0.061 µM): 2.07e+17; ESI positive response factor (0.122 µM): 1.95e+17
CN1C(C)(C)CC(O)CC1(C)C [1,2,2,6,6-Pentamethyl-4-piperidinol] | 4.91e+17 | 5.26e+17 | 5.02e+17 | 4.63e+17 | 4.69e+17 | ESI positive response factor (0.875 µM): 4.18e+17; ESI positive response factor (1.75 µM): 3.68e+17
CC(C)(CO)[C@@H](O)C(=O)NCCCO [Panthenol] |  |  |  |  |  | ESI positive response factor (0.0122 µM): 5.93e+16; ESI positive response factor (0.0244 µM): 6.23e+16; ESI positive response factor (0.061 µM): 6.32e+16; ESI positive response factor (0.122 µM): 6.16e+16; ESI positive response factor (0.244 µM): 6.31e+16
COc1cc(Cc2cnc(N)nc2N)cc(OC)c1OC [Trimethoprim] | 2.88e+17 | 3.52e+17 | 3.58e+17 | 3.13e+17 | 3.46e+17 | ESI positive response factor (0.875 µM): 3.33e+17
CNC(=O)CSP(=S)(OC)OC [Dimethoate] | 5.46e+16 | 5.3e+16 | 5.84e+16 | 5.04e+16 | 5.56e+16 | 
CC(=O)NCCCS(=O)(=O)O [Acamprosate] |  |  |  | 3.1e+15 | 3.14e+15 | ESI positive response factor (0.875 µM): 3.18e+15; ESI positive response factor (1.75 µM): 3.25e+15
CCC1(c2ccccc2)C(=O)NCNC1=O [Primidone] | 8.94e+16 | 1.09e+17 | 1.15e+17 | 9.69e+16 | 1.08e+17 | 
CC1(C)CC(O)CC(C)(C)N1 [2,2,6,6-Tetramethyl-4-piperidinol] | 1.95e+17 | 1.78e+17 | 1.53e+17 | 1.47e+17 | 1.58e+17 | 
COC(=O)C1=CCCN(C)C1 [Arecolin] | 4.44e+17 | 4.27e+17 | 4.13e+17 | 3.78e+17 | 3.77e+17 | 
O=P(OCCCl)(OCCCl)OCCCl [Tris(2-chloroethyl) phosphate] | 2.68e+18 | 2.89e+18 | 2.72e+18 |  |  | 
COc1ccc2cc(C(C)C(=O)O)ccc2c1 (centres undefined) [Naproxen] |  | 7.47e+15 | 7.04e+15 | 6.98e+15 | 6.96e+15 | 
CN(C)C(=O)C(c1ccccc1)c1ccccc1 [Diphenamid] | 1.12e+17 | 1.02e+17 | 1.09e+17 | 9.79e+16 | 1.13e+17 | 
NC(=O)c1c(Cl)cccc1Cl [2,6-Dichlorbenzamid] |  | 1.78e+16 | 2.14e+16 | 2.26e+16 | 2.46e+16 | ESI positive response factor (0.875 µM): 2.38e+16
CN=C(NC#N)NCCSCc1nc[nH]c1C [Cimetidine] | 6.5e+16 | 9.26e+16 | 8.81e+16 | 8.23e+16 | 9.32e+16 | ESI positive response factor (0.875 µM): 8.86e+16

SMILES | ESI positive response factor (0.0175 µM) | ESI positive response factor (0.035 µM) | ESI positive response factor (0.0875 µM) | ESI positive response factor (0.175 µM) | ESI positive response factor (0.35 µM) | further results
CCCCCC(C)N (centres undefined) [2-Aminoheptane] |  | 1.87e+16 | 1.47e+16 |  |  | 
Cc1cc(=O)oc2cc(O)ccc12 [4-Methylumbelliferone] |  |  |  |  |  | ESI positive response factor (0.0122 µM): 7.52e+16; ESI positive response factor (0.0244 µM): 8.88e+16; ESI positive response factor (0.061 µM): 7.61e+16; ESI positive response factor (0.122 µM): 7.61e+16; ESI positive response factor (0.244 µM): 7.56e+16
COCC(=O)Nc1c(I)c(C(=O)NCC(O)CO)c(I)c(C(=O)N(C)CC(O)CO)c1I (centres undefined) [Iopromide] |  |  |  |  |  | ESI positive response factor (0.61 µM): 1.19e+15; ESI positive response factor (1.22 µM): 1.27e+15
Cn1sccc1=O [Methylisothiazolinone] |  |  |  |  |  | ESI positive response factor (0.61 µM): 9.58e+14; ESI positive response factor (1.22 µM): 1.18e+15
N#CN=C(N)N [Dicyandiamide] |  | 3.07e+15 | 4.26e+15 | 3.9e+15 | 4.96e+15 | ESI positive response factor (0.875 µM): 6.05e+15; ESI positive response factor (1.75 µM): 6.06e+15
CC(Oc1ccc(Oc2ncc(C(F)(F)F)cc2Cl)cc1)C(=O)O (centres undefined) [Haloxyfop] |  |  |  |  |  | ESI positive response factor (0.244 µM): 5.62e+15; ESI positive response factor (0.61 µM): 5.23e+15; ESI positive response factor (1.22 µM): 4.69e+15
CNC(=O)Oc1cccc2c1OC(C)(C)C2 [Carbofuran] | 8.85e+16 | 8.12e+16 | 8.68e+16 | 7.6e+16 | 9.93e+16 | 
N=C(N=C(N)N)N1CCOCC1 [Moroxydine] |  |  |  |  |  | ESI positive response factor (0.0122 µM): 1.51e+17; ESI positive response factor (0.0244 µM): 1.7e+17; ESI positive response factor (0.061 µM): 1.94e+17; ESI positive response factor (0.122 µM): 1.92e+17; ESI positive response factor (0.244 µM): 1.97e+17
Cc1cccc(C)c1N(Cn1cccn1)C(=O)CCl [Metazachlor] |  |  |  |  |  | ESI positive response factor (0.0122 µM): 3.21e+17; ESI positive response factor (0.0244 µM): 3.32e+17; ESI positive response factor (0.061 µM): 3.05e+17; ESI positive response factor (0.122 µM): 2.62e+17; ESI positive response factor (0.244 µM): 2.65e+17
CNCCC(Oc1ccc(C(F)(F)F)cc1)c1ccccc1 (centres undefined) [Fluoxetine] | 9.5e+16 | 1.16e+17 | 1.1e+17 | 1.05e+17 |  | 
Cn1c(=O)c2c(ncn2C)n(C)c1=O [Caffeine] | 2.34e+17 | 2.22e+17 | 2.03e+17 |  |  | 
CN1CCN(C)C1=O [1,3-Dimethyl-2-imidazolidinone] | 6.51e+16 | 7.85e+16 | 6.75e+16 | 6.53e+16 |  | 
CCCCC(CC)CNCC(CC)CCCC (centres undefined) [Bis(2-ethylhexyl)amine] | 8.07e+17 | 8.73e+17 | 9.48e+17 | 9.83e+17 |  | 
C#C[C@]1(O)CC[C@H]2[C@@H]3CCc4cc(O)ccc4[C@H]3CC[C@@]21C [17-Alpha-Ethinylestradiol] |  | 1.46e+16 | 1.85e+16 | 1.59e+16 | 1.71e+16 | 
Nc1ncnc2c1ncn2C1OC(CO)C(O)C1O (centres undefined) [Adenosine] |  | 1.46e+17 | 1.26e+17 |  |  | 
CCCCC(=O)N(Cc1ccc(-c2ccccc2-c2nn[nH]n2)cc1)C(C(=O)O)C(C)C (centres undefined) [Valsartan] | 2.86e+16 | 5.36e+16 | 5.55e+16 | 5.75e+16 | 6.09e+16 | ESI positive response factor (0.875 µM): 6.04e+16; ESI positive response factor (1.75 µM): 5.94e+16
Nc1nc(N)c2nc(CO)cnc2n1 [2,4-Diamino-6-(hydroxymethyl)pteridine] | 2.75e+16 | 4.33e+16 | 4.27e+16 | 3.56e+16 | 3.92e+16 | ESI positive response factor (0.875 µM): 4.05e+16
COC(=O)NS(=O)(=O)c1ccc(N)cc1 [Asulam] |  | 1.24e+16 | 1.31e+16 | 1.29e+16 | 1.46e+16 | ESI positive response factor (0.875 µM): 1.49e+16; ESI positive response factor (1.75 µM): 1.43e+16
